Measurements published in patent US20250109140A1, “5-[5-(PIPERIDIN-4-YL)THIENO[3,2-C]PYRAZOL-2-YL]INDAZOLE DERIVATIVES AND RELATED COMPOUNDS AS MODULATORS FOR SPLICING NUCLEIC ACIDS AND FOR THE TREATMENT OF PROLIFERATIVE DISEASES” (REMIX THERAPUTICS INC., priority 2022, published 2025).
Counter-ions that a name gives are not always drawn. Like-named read-outs stand apart in the source and are kept apart here.

Experiments:
Assay type in all cases: cell-based
[1] = system: Target C mRNA; assay: Splicing RT-qPCR gene panel, Target C canonical junction (CJ) mRNA; settings: Homo sapiens; Table 8; larger gene panel, decrease in CJ mRNA levels
Description: (§1) Compounds described herein were used to modulate RNA transcript abundance in cells. The expression of a target mRNA was measured by detecting the formation of an exon-exon junction in the canonical transcript (CJ). A compound mediated exon-inclusion event was detected by observing an increase in formation of a new junction with an alternative exon (AJ). Real-time qPCR assays were used to detect these splicing switches and interrogate the potency of various compounds towards different target genes. A high-throughput real time quantitative PCR (RT-qPCR) assay was developed to measure these two isoforms of the mRNA (CJ and AJ) for exemplary genes, such as HTT, SMN2, and MYB, together with a control housekeeping gene, GAPDH or GUSB or PPIA, used for normalization. Briefly, the A673 or K562 cell line was treated with various compounds described herein (e.g., compounds of Formula (I)). After treatment, the levels of the HTT, MYB, or SMN2 mRNA targets were determined from each sample of cell lysate by cDNA synthesis followed by qPCR.
(§2) The A673 cell line was cultured in DMEM with 10% FBS. Cells were diluted with full growth media and plated in a 96-well plate (15,000 cells in 100 ul media per well). The plate was incubated at 37° C. with 5% CO2 for 24 hours to allow cells to adhere. An 11-point 3-fold serial dilution of the compounds was made in DMSO then diluted in media in an intermediate plate. Compounds were transferred from the intermediate plate to the cell plate with the top dose at a final concentration of 10 uM in the well. Final DMSO concentration was kept at or below 0.25%. The cell plate was returned to the incubator at 37° C. with 5% CO2 for an additional 24 hours.
(§3) The K562 cell line was cultured in IMDM with 10% FBS. For K562, cells were diluted with full growth media and plated in either a 96-well plate (50,000 cells in 50 uL media per well) or a 384-well plate (8,000-40,000 cells in 45 uL media per well). An 11-point 3-fold serial dilution of the compounds were made in DMSO then diluted in media in an intermediate plate. Compound was transferred from the intermediate plate to the cell plate with the top dose at a final concentration of 10 uM in the well. Final DMSO concentration was kept at or below 0.25%. Final volume was 100 uL for 96-well plate and 50 uL for 384-well plate. The cell plate was then placed in an incubator at 37° C. with 5% CO2 for 24 hours.
(§4) The cells were then gently washed with 50 uL-100 uL cold PBS before proceeding to addition of lysis buffer. 30 uL-50 uL of room temperature lysis buffer with DNAse I (and optionally RNAsin) was added to each well. Cells were shaken/mixed thoroughly at room temperature for 5-10 minutes for lysis to take place and then 3 uL-5 uL of room temperature stop solution was added and wells were shaken/mixed again. After 2-5 minutes, the cell lysate plate was transferred to ice for RT-qPCR reaction setup. The lysates could also be frozen at-80° C. for later use.
(§5) In some cases, a direct lysis buffer was used. An appropriate volume of 3× lysis buffer (10 mM Tris, 150 mM NaCl, 1.5%-2.5% Igepal and 0.1-1 U/uL RNAsin, pH 7.4) was directly added to either K562 or A673 cells in media and mixed by pipetting 3 times. The plates were then incubated at room temperature with shaking/rocking for 20-50 minutes to allow for lysis to take place. After this time, the cell lysate plate was transferred to ice to set up for the RT-qPCR reactions. The lysates could also be frozen at −80° C. for later use.
(§6) To set up 10 uL RT-qPCR reactions, cell lysates were transferred to 384-well qPCR plates containing the master mix according to the table below. The plates were sealed, gently vortexed, and spun down before the run. The volumes were adjusted accordingly in some instances where the reaction was carried in 20 μL. The table below summarizes the components of the RT-qPCR reactions:
(§7) The RT-qPCR reaction was performed using a QuantStudio (ThermoFisher) under the following fast cycling conditions. […]

[2] = system: SMN2 mRNA; assay: Splicing RT-qPCR gene panel, SMN2 canonical junction (CJ) mRNA; settings: Homo sapiens; Table 8; larger gene panel, decrease in CJ mRNA levels
Description: as §1, §2, §3, §4, §5, §6, §7

[3] = system: MYB mRNA; assay: Splicing RT-qPCR assay, MYB canonical (CJ) and alternative (AJ) junction mRNA; settings: Homo sapiens; for EC50: AC50 = 50% response in AJ mRNA increase
Description: as §1, §2, §3, §4, §5, §6, §7

[4] = system: HTT mRNA; assay: Splicing RT-qPCR assay, HTT canonical (CJ) and alternative (AJ) junction mRNA; settings: Homo sapiens; for EC50: AC50 = 50% response in AJ mRNA increase
Description: as §1, §2, §3, §4, §5, §6, §7

[5] = Table 7, RT-qPCR, A673 or K562 cells, 24 hours treatment
[6] = Table 7, IC50 = 50% response in CJ mRNA decrease, RT-qPCR, A673 or K562 cells, 24 hours treatment, read-out: MYB CJ
[7] = Table 8, larger gene panel, decrease in CJ mRNA levels, read-out: MYB CJ IC50
[8] = Table 7, IC50 = 50% response in CJ mRNA decrease, RT-qPCR, A673 or K562 cells, 24 hours treatment, read-out: HTT CJ
[9] = Table 8, larger gene panel, decrease in CJ mRNA levels, read-out: HTT CJ IC50

Row | SMILES | IC50 [1] [nM] | IC50 [2] [nM] | EC50 [3, 5] [nM] | IC50 [3, 6] [nM] | IC50 [3, 7] [nM] | EC50 [4, 5] [nM] | IC50 [4, 8] [nM] | IC50 [4, 9] [nM]
1 | Cn1cc2cc(-c3nc4sc([C@H]5CCNC[C@H]5F)cc4s3)cc(F)c2n1 [Compound 240, 7-fluoro-5-{5-[(3S,4S)-3-fluoropiperidin-4-yl]thieno[2,3-d][1,3]thiazol-2-yl}-2-methylindazole] | > 10000 | 100 to 1000 | 1000 to 10000 | 1000 to 10000 | 1000 to 10000 | 1000 to 10000 | 1000 to 10000 | 1000 to 10000
2 | Cn1cc2cc(-c3nc4sc(C5CCNCC5)cn4n3)cc(F)c2n1 [Compound 103, 7-fluoro-2-methyl-5-[5-(piperidin-4-yl)-[1,2,4]triazolo[3,2-b][1,3]thiazol-2-yl]indazole] | > 10000 | > 10000 | > 10000 | > 10000 | > 10000 | > 10000 | > 10000 | > 10000
3 | CN1CCC(N(C)c2cc3sc(-c4cc(F)c5nn(C)cc5c4)nc3s2)CC1 [Compound 145, N-[2-(7-fluoro-2-methylindazol-5-yl)thieno[2,3-d][1,3]thiazol-5-yl]-N,1-dimethylpiperidin-4-amine] | > 10000 | 100 to 1000 | 1000 to 10000 | 1000 to 10000 | 1000 to 10000 | > 10000 | > 10000 | > 10000
4 | Cn1cc2cc(-c3nc4sc(N5CCNC6(CC6)C5)cc4s3)cc(F)c2n1 [Compound 136, 5-(5-[4,7-diazaspiro[2.5]octan-7-yl]thieno[2,3-d][1,3]thiazol-2-yl)-7-fluoro-2-methylindazole] | > 10000 | 100 to 1000 | 100 to 1000 | 1000 to 10000 | 100 to 1000 | > 10000 | > 10000 | > 10000
5 | COc1c(-c2nc3sc(C4CCNCC4)cc3s2)cc(F)c2nn(C)cc12 [Compound 237, 7-fluoro-4-methoxy-2-methyl-5-[5-(piperidin-4-yl)thieno[2,3-d][1,3]thiazol-2-yl]indazole] | > 10000 | > 10000 | > 10000 | 1000 to 10000 | > 10000 | > 10000 | > 10000 | > 10000
6 | Cn1cc2cc(-c3nc4sc(N5CCC56CCNC6)cc4s3)cc(F)c2n1 (stereo not shown) [Compound 200, 5-(5-{1,6-diazaspiro[3.4]octan-1-yl}thieno[2,3-d][1,3]thiazol-2-yl)-7-fluoro-2-methy-lindazole] | > 10000 | 1000 to 10000 | > 10000 | > 10000 | > 10000 | > 10000 | > 10000 | > 10000
7 | Cc1cn2nc(-c3nc4sc(C5CCNC5)cc4s3)cc(C)c2n1 (stereo not shown) [Compound 197, 3-(2-{2,8-dimethylimidazo[1,2-b]pyridazin-6-yl}thieno [2,3-d][1,3]thiazol-5-yl)pyrrolidine] | 1000 to 10000 | 100 to 1000 | 100 to 1000 | 100 to 1000 | 100 to 1000 | 100 to 1000 | 100 to 1000 | 100 to 1000
8 | Cn1cc2cc(-c3nc4sc(N5CCC(NC(C)(C)C)C5)cc4s3)cc(F)c2n1 (stereo not shown) [Compound 143, N-tert-butyl-1-[2-(7-fluoro-2-methylindazol-5-yl)thieno[2,3-d][1,3]thiazol-5-yl]pyrrolidin-3-amine] | 1000 to 10000 | 100 to 1000 | 100 to 1000 | 1000 to 10000 | 100 to 1000 | 1000 to 10000 | 1000 to 10000 | 1000 to 10000
9 | Cn1cc2ccc(-c3nc4sc(C5CCNCC5)cc4s3)cc2n1 [Compound 127, 2-methyl-6-[5-(piperidin-4-yl)thieno [2,3-d][1,3]thiazol-2-yl]indazole hydrochloride] | 1000 to 10000 | 1000 to 10000 | 1000 to 10000 | 1000 to 10000 | 1000 to 10000 | 1000 to 10000 | 1000 to 10000 | 1000 to 10000
10 | CN1CCN(c2cc3sc(-c4cc(F)c5nn(C)cc5c4)nc3s2)CC1 [Compound 141, 7-fluoro-2-methyl-5-[5-(4-methylpiperazin-1-yl)thieno[2,3-d][1,3]thiazol-2-yl]indazole] | 1000 to 10000 | < 100 | 100 to 1000 | 100 to 1000 | 100 to 1000 | 100 to 1000 | 100 to 1000 | 100 to 1000

More lines, now with the values ahead:

Row | IC50 [1] [nM] | IC50 [2] [nM] | EC50 [3, 5] [nM] | IC50 [3, 6] [nM] | IC50 [3, 7] [nM] | EC50 [4, 5] [nM] | IC50 [4, 8] [nM] | IC50 [4, 9] [nM] | SMILES
11 | 100 to 1000 | < 100 | 100 to 1000 | 100 to 1000 | 100 to 1000 | < 100 | < 100 | < 100 | Cn1cc2cc(N3Cc4sc(C5CCNCC5)cc4C3=O)cc(F)c2n1 [Compound 1119, 5-(7-fluoro-2-methylindazol-5-yl)-2-(piperidin-4-yl)-6H-thieno[2,3-c]pyrrol-4-one]
12 | 100 to 1000 | < 100 | 100 to 1000 | 100 to 1000 | 100 to 1000 | < 100 | < 100 | < 100 | Cc1cc(-c2nc3sc(C4CCNCC4)cc3s2)cc2cn(C)nc12 [Compound 238, 2,7-dimethyl-5-[5-(piperidin-4-yl)thieno[2,3-d][1,3]thiazol-2-yl]indazole]
13 | < 100 | < 100 | < 100 | < 100 | < 100 | < 100 | < 100 | < 100 | C[C@@H]1C[C@H](c2cc3sc(-c4cc(F)c5nn(C)cc5c4)nc3s2)CCN1 (single isomer, unassigned) [Compound 192, 7-fluoro-2-methyl-5-[5-(2-methylpiperidin-4-yl)thieno[2,3-d][1,3]thiazol-2-yl]indazole]
14 | 100 to 1000 | < 100 |  |  | 100 to 1000 |  |  | 100 to 1000 | CN1CC2(C1)CN(c1cc3sc(-c4cc(F)c5nn(C)cc5c4)nc3s1)C2 [Compound 146, 7-fluoro-2-methyl-5-(5-[6-methyl-2,6-diazaspiro[3.3]heptan-2-yl]thieno[2,3-d][1,3]thiazol-2-yl)indazole]
15 | 100 to 1000 | < 100 | 100 to 1000 | 100 to 1000 | 100 to 1000 | 100 to 1000 | 100 to 1000 | 100 to 1000 | CCNC1CCN(c2cc3sc(-c4cc(F)c5nn(C)cc5c4)nc3s2)CC1 [Compound 137, N-ethyl-1-[2-(7-fluoro-2-methylindazol-5-yl)thieno[2,3-d][1,3]thiazol-5-yl]piperidin-4-amine]
16 | 1000 to 10000 | 100 to 1000 | 1000 to 10000 | 1000 to 10000 | 1000 to 10000 | 1000 to 10000 | 1000 to 10000 | 1000 to 10000 | CC1CN(c2cc3sc(-c4cc(F)c5nn(C)cc5c4)nc3s2)CCN1C (stereo not shown) [Compound 128, 5-[5-(3,4-dimethylpiperazin-1-yl)thieno[2,3-d][1,3]thiazol-2-yl]-7-fluoro-2-methylindazole]
